The term EC50 denotes the concentration needed to bring the measured effect to its halfway point. What is called inhibition is the drop in the measured response relative to a control, in per cent.

Test [1] is described as follows: DPPH free radical scavenging assay. The following applies: 517 nm; for DPPH (%): radical scavenging, concentration not given; for EC50: read-out: EC50 (DPPH radical scavenging).
The target in test [2] is T1, mushroom tyrosinase (Agaricus bisporus, UniProt C7FF04). Put plainly: Enzymatic assay for tyrosinase inhibition. It is filed as biochemical. Particulars: read-out: Inhibition% ± SEM.
Test [3] has as its target T1, mushroom tyrosinase. Put plainly: Determination of the inhibition type. The following applies: Lineweaver-Burk. It counts as biochemical.

“Also recorded” adds a separate entry of the source. Where only a bound is given, the exact number is not on record here.

T1 sequence (C7FF04 2-392): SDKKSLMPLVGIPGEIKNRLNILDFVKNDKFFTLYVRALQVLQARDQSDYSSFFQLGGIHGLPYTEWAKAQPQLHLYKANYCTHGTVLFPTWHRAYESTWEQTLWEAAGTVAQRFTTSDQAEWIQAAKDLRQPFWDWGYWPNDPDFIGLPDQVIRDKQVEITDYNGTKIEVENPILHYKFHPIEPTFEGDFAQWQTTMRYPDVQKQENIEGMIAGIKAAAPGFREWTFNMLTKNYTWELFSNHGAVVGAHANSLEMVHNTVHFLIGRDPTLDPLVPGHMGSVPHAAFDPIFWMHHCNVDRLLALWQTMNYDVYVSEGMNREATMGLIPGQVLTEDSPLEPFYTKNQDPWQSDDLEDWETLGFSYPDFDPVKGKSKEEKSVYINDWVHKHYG

In the case of `O=c1c(O)c(-c2ccc(O)c(O)c2)oc2cc(O)cc(O)c12` [Quercetin, reference compound], in test [1], the “DPPH (%)” value is recorded as 74.33% and the EC50 is 8.9 µM.
With `Cc1ccc(C=NNC(=O)c2cccc(-n3ccc(=O)c(O)c3C)c2)cc1` [6d, 3-(3-hydroxy-2-methyl-4-oxopyridin-1(4H)-yl)-N′-(4-methylbenzylidene)benzohydrazide], in test [1], the “DPPH (%)” value worked out at 39.13% and the EC50 stood at 369 ± 10 µM. The inhibition at 50 µM at mushroom tyrosinase [2] was determined as 49 ± 7.51%.
On to `Cc1c(O)c(=O)ccn1-c1cccc(C(=O)NN=Cc2ccc(F)cc2)c1` [6b, 3-(3-hydroxy-2-methyl-4-oxopyridin-1(4H)-yl)-N′-(4-fluorobenzylidene)benzohydrazide], for which, in test [1], the “DPPH (%)” value worked out at 71.42% and the half-maximal effective concentration (EC50) worked out at 12 µM. Also, at mushroom tyrosinase [2], the inhibition at 50 µM was 43.1 ± 3.41%.
For `Cc1c(O)c(=O)ccn1-c1cccc(C(=O)NN=Cc2cc([N+](=O)[O-])ccc2Cl)c1` [6h, 3-(3-hydroxy-2-methyl-4-oxopyridin-1(4H)-yl)-N′-(2-chloro-5-nitrobenzylidene)benzohydrazide], in test [1], the “DPPH (%)” value came out at 31.91% and the EC50 is more than 400 µM. Moreover, on mushroom tyrosinase [2], the inhibition at 50 µM came to 11.4 ± 2.59%.
For the compound `Cc1c(O)c(=O)ccn1-c1cccc(C(=O)NN=Cc2cc(Br)ccc2O)c1` [6i, 3-(3-hydroxy-2-methyl-4-oxopyridin-1(4H)-yl)-N′-(5-bromo-2-hydroxybenzylidene)benzohydrazide], in test [1], the “DPPH (%)” value is given as 42.64% and the EC50 amounted to 185 ± 130 µM. For the same compound, the inhibition at 50 µM on mushroom tyrosinase [2] turned out to be 49.6 ± 12.6%. In addition, on mushroom tyrosinase [3] (L-Dopa), the “Km value with increasing inhibitor concentration” value is “increased” and the “Vmax with increasing inhibitor concentration” value was “not affected”. On mushroom tyrosinase [3] (inhibitor 0, 12.64, 25.29, 50.58 μM, L-Dopa 0.5-10.0 mM), the inhibition type entry is reported as “competitive inhibitor; also recorded: competitive type of inhibition”.
On to `Cc1c(O)c(=O)ccn1-c1cccc(C(=O)NN=Cc2ccc(C(C)C)cc2)c1` [6e, 3-(3-hydroxy-2-methyl-4-oxopyridin-1(4H)-yl)-N′-(4-isopropylbenzylidene)benzohydrazide], for which, in test [1], the “DPPH (%)” value was found to be 61.44% and the concentration giving a half-maximal response (EC50) was 14 ± 10 µM. For the same compound, at mushroom tyrosinase [2], the inhibition at 50 µM was 41.7 ± 4.07%.
The corresponding values for `Cc1c(O)c(=O)ccn1-c1cccc(C(=O)NN=Cc2ccc(Cl)cc2Cl)c1` [6g, 3-(3-hydroxy-2-methyl-4-oxopyridin-1(4H)-yl)-N′-(2,4-dichlorobenzylidene)benzohydrazide] are 39.11%, 191 ± 70 µM and 28.1 ± 3.97%.
In the case of `Cc1c(O)c(=O)ccn1-c1cccc(C(=O)NN=Cc2ccc([N+](=O)[O-])s2)c1` [6j, 3-(3-hydroxy-2-methyl-4-oxopyridin-1(4H)-yl)-N'-((5-nitrothiophen-2-yl)methylene)benzohydrazide], in test [1], the “DPPH (%)” value worked out at 42.74% and the EC50 came out at 383 ± 120 µM. For the same compound, on mushroom tyrosinase [2], the inhibition at 50 µM is 40.4 ± 5%.
The corresponding values for `Cc1c(O)c(=O)ccn1-c1cccc(C(=O)NN=Cc2ccc(C#N)cc2)c1` [6c, 3-(3-hydroxy-2-methyl-4-oxopyridin-1(4H)-yl)-N′-(4-cyanobenzylidene)benzohydrazide] are 43.67%, 216 ± 80 µM and 30.8 ± 2.85%.
As for `COc1cccc(C=NNC(=O)c2cccc(-n3ccc(=O)c(O)c3C)c2)c1[N+](=O)[O-]` [6f, 3-(3-hydroxy-2-methyl-4-oxopyridine-1(4H)-yl)-N′-(3-methoxy-2-nitrobenzylidene)benzohydrazide], in test [1], the “DPPH (%)” value is on record as 43.67% and the concentration giving a half-maximal response (EC50) amounted to 168 ± 30 µM. The inhibition at 50 µM at mushroom tyrosinase [2] was determined as 34.8 ± 3.83%.
Take `Cc1c(O)c(=O)ccn1-c1cccc(C(=O)NN=Cc2ccccc2[N+](=O)[O-])c1` [6a, 3-(3-hydroxy-2-methyl-4-oxopyridin-1(4H)-yl)-N′-(2-nitrobenzylidene)benzohydrazide]: in test [1], the “DPPH (%)” value stood at 77.15% and the EC50 is 32 ± 10 µM. Further, the inhibition at 50 µM at mushroom tyrosinase [2] was determined as 46.1 ± 8.21%.

Values taken from article PMC10629491 (RSC Advances, 2023).
